The values below come from PubChem BioAssay AID1963837 (Molecular Pharmacology Branch, DTP, NCI, 2024).

The assay relates to 843126-344-R-J1-PDC complex spheroid viability. Briefly: Anticancer human tumor 843126-344-R-J1-PDC patient-derived melanoma cell line growth inhibition [POLQ]. Conditions: for viability, T/C: stronger effect = lower value. The procedure:
Multicellular complex tumor spheroid response to Polymerase (POL) inhibitors (novobiocin, ART-558, RP6685) in combination with a variety of drugs and investigational agents in selected tumor cell lines
The POL inhibitors (novobiocin, ART-558, and RP6685) were evaluated both individually and in combination with standard of care and investigational anticancer small molecules within a complex spheroid model of solid tumors. . Complex spheroids include a stromal component modeled by human endothelial cells (HUVEC) and fibroblasts modeled by human mesenchymal stem cells (MSCs). The concentration ranges selected for each drug and investigational agent were based upon clinically achievable concentrations if the clinical Cmax of the agent was known.
Compounds. The drugs and investigational agents: novobiocin (NSC847541), ART-558 (NSC835418), RP-6685 (NSC848927), peposertib (NSC802822), ceralasertib (NSC780249), elimusertib (NSC800525), camonsertib (NSC841442), AZD-1390 (NSC803789), olaparib (NSC753686), talazoparib (NSC767125), rucaparib (NSC756644), sotorasib (NSC818433), MRTX-1133 (NSC836407), SN-38 (NSC673596), topotecan (NSC609699), epotoside (NSC141540), doxorubicin (NSC123127), gemcitabine (NSC613327), 5-fluorouracil (NSC19893), paclitaxel (NSC125973), vemurafenib (NSC761431), MSA-2 (NSC828583), SN-011 (NSC837082), adavosertib (NSC754352), prexasertib (NSC758257), carboplatin (NSC241240) and oxaliplatin (NSC266046), were obtained from the National Cancer Institute (NCI) Developmental Therapeutics Program Chemical Repository (21). The FDA-approved anticancer drug set is available from the Developmental Therapeutics Program at https://dtp.cancer.gov/organization/dscb/obtaining/. […] The stock solutions were prepared in dimethyl sulfoxide (DMSO, Sigma-Aldrich, St. Louis, MO, cat. D2650), except for the platinum compounds which were prepared in saline (Quality Biological, Gaithersburg, MD, cat. 114-055-101), at 800-fold the tested concentration and stored at -70 degrees C prior to their use. All drugs and investigational agents were tested over a range starting from a high concentration at or near the clinical Cmax and decreasing in half-log increments. If the clinical Cmax for an agent had not been determined, the highest concentration tested was 10 microM, except for SN-38, which was tested at a high concentration of 1 microM.
Cell Culture. All cells were maintained in an incubator at 37 degrees C and 5% CO2 with 95% humidity. The PDC lines were cultured according to standard operating procedures established by the NCI PDMR (https://pdmr.cancer.gov). Table 3 of the manuscript, lists the cell lines along with the number of the three cell types plated to form the mct-spheroids and media for tumor cell growth. After thawing, all PDC lines, except 997537-175-T-J1-PDC and 415267-285-R-J2-PDC, were cultured in Matrigel-coated flasks prepared with a working solution of 1X Ham's F-12 nutrient mix, without supplementation (Thermo Fisher Scientific, cat. 11765054), 100 U/mL penicillin-streptomycin (Thermo Fisher Scientific, cat. 15140122), and 2.5% Matrigel (Corning Inc., Corning, NY, cat. 354248) for the first three passages. The two PDC lines 997537-175-T-J1-PDC and 415267-285-R-J2-PDC were cultured on uncoated flasks. The 857933-349-R-J2-PDC line was cultured in 6C/Colon 1B media containing advanced DMEM/F-12 (Thermo Fisher Scientific, cat. 12634028), 10 mM HEPES (Thermo Fisher Scientific, cat. 15630080), 1X GlutaMAX supplement (Thermo Fisher Scientific, cat. 35050061), 0.1 mg/mL primocin (InvivoGen, San Diego, CA, cat. ant-pm-2), 10% defined fetal bovine serum, heat inactivated (HyClone Laboratories Inc., Logan, UT, cat. SH30070.03HI), 50% L-WRN conditioned media (ATCC, cat. CRL-3276), 1.25 mM N-Acetyl-L-cysteine (Sigma-Aldrich, cat. A9165), 10 mM nicotinamide (Sigma-Aldrich, cat. N0636), 1X B-27 supplement (Thermo Fisher Scientific, cat. 17504044), 1X N-2 supplement (Thermo Fisher Scientific, cat. […]

Structures are written as SMILES. pIC50: −log10 of the molar value. Where “and” joins values, the source holds several entries; their conditions need not be identical. Equal entries are not always repeated.
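Wherever viability, T/C is given: spheroids exposed to drugs for seven days before readout.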

A word on the viability, T/C: it is the ratio of treated to control. Usually pIC50 stands for the negative decadic logarithm of the IC50, by convention in mol/L. Regarding `CNCc1ccc(-c2[nH]c3cc(F)cc4c3c2CCNC4=O)cc1`, the viability, T/C by setting is: (compound 0.0316 µM) 99.4% and 100% and 94.8%; (compound 0.1 µM) 77.4% and 81.4% and 75.4%; (compound 0.316 µM) 87.7% and 100% and 97.9%; (compound 1 µM) 76% and 91.1% and 107%; (compound 3.16 µM) 76% and 108% and 89%; (compound 10 µM) 73.8% and 87% and 79.3%. In addition, where the note is “curve of compound”, the pIC50 was less than 5.00.
Turning to `COc1cc(C2c3cc4c(cc3C(OC3OC5COC(C)OC5C(O)C3O)C3COC(=O)C23)OCO4)cc(OC)c1O` (stereo not given), the viability, T/C (compound 0.0316 µM) is 82.2% and 114% and 91.2%; the viability, T/C (compound 0.1 µM) was 95.3% and 90.7% and 102%; the viability, T/C (compound 0.316 µM) is 90% and 97.6% and 83.3%; the viability, T/C (compound 1 µM) was 90.9% and 79% and 81.2%; the viability, T/C (compound 3.16 µM) was 58.2% and 68.9% and 66.3%; the viability, T/C (compound 10 µM) was 50% and 52.2% and 41.9%. For the same compound, the pIC50 (curve of compound) was < 5.00 and 5.17.
`COc1ccc([C@@H](O)c2cc(-c3ncnc4cc(N5CCOCC5)ccc34)c(F)cc2Cl)nn1`: the viability, T/C runs as follows: (compound 0.0316 µM) 103% and 80.6% and 95.7%; (compound 0.1 µM) 84.7% and 89.8% and 74.2%; (compound 0.316 µM) 92.1% and 102% and 93.4%; (compound 1 µM) 112% and 87.3% and 81.3%; (compound 3.16 µM) 86.4% and 73.3% and 59.9%; (compound 10 µM) 66.4% and 71.2% and 48.2%. Moreover, the negative logarithm of the IC50 (pIC50) (curve of compound) is < 5.00 and 5.07.
In the case of `COc1cccc(OCCCN)c1-c1cc(Nc2cnc(C#N)cn2)n[nH]1`, the viability, T/C runs as follows: (compound 0.00316 µM) 97.4% and 92.9% and 79.1%; (compound 0.01 µM) 79.3% and 86.4% and 75.8%; (compound 0.0316 µM) 59% and 60.4% and 62.1%; (compound 0.1 µM) 49.5% and 47.9% and 49.9%; (compound 0.316 µM) 47.6% and 47.8% and 44.3%; (compound 1 µM) 35.3% and 32.9% and 35.2%. Also, the pIC50 (curve of compound) is 6.96 and 7.06 and 6.94.
As for `COc1cccc2c1C(=O)c1c(O)c3c(c(O)c1C2=O)CC(O)(C(=O)CO)CC3OC1CC(N)C(O)C(C)O1` (stereo not given), the viability, T/C is, setting by setting: (compound 0.0316 µM) 82.8% and 77.3% and 86.3%; (compound 0.1 µM) 70.2% and 71% and 79.7%; (compound 0.316 µM) 44.3% and 47.8% and 56.8%; (compound 1 µM) 12.3% and 15.1% and 18.4%; (compound 3.16 µM) 4.78% and 2.95% and 3.66%; (compound 10 µM) 3.94% and 2.18% and 3.96%. Also, under “curve of compound”, the pIC50 is 6.63 and 6.55 and 6.41.
Regarding `Cn1ncnc1[C@H]1c2n[nH]c(=O)c3cc(F)cc(c23)N[C@@H]1c1ccc(F)cc1`, the viability, T/C was 85.9% and 104% and 97.7% (compound 0.000316 µM); 103% and 90.3% and 99.6% (compound 0.001 µM); 103% and 95% and 84.3% (compound 0.00316 µM); 86.2% and 97.3% and 92.6% (compound 0.01 µM); 86.9% and 122% and 88.4% (compound 0.0316 µM); 84.2% and 90.4% and 88% (compound 0.1 µM). The pIC50 (curve of compound) was less than 7.00.
Turning to `Nc1ccc(C#CCN(C(=O)Cc2ncc(C(F)(F)F)cc2C(F)(F)F)c2ccc(F)cc2)nn1`, the viability, T/C was 98.2% [middle of 13 runs] (compound 0.0316 µM); 95.1% [middle of 13 runs] (compound 0.1 µM); 97.8% [middle of 13 runs] (compound 0.316 µM); 92.4% [middle of 12 runs] (compound 1 µM); 90.4% [middle of 13 runs] (compound 3.16 µM); 87.2% [middle of 13 runs] (compound 10 µM). Under “compound alone, run of 01/19/2024”, the pIC50 is less than 5.00.
As to `Nc1ccn(C2OC(CO)C(O)C2(F)F)c(=O)n1` (stereo not given), the viability, T/C by setting is: (compound 0.0316 µM) 46.2% and 42.9% and 42.2%; (compound 0.1 µM) 38.7% and 36.8% (2×); (compound 0.316 µM) 47.1% and 45.8% and 33.8%; (compound 1 µM) 43% and 35% and 37.6%; (compound 3.16 µM) 41.3% and 39.6% and 33.5%; (compound 10 µM) 38.2% and 37.7% and 35.1%. Further, the pIC50 (curve of compound) was more than 7.50.
On to `O=C(c1cc(Cc2n[nH]c(=O)c3ccccc23)ccc1F)N1CCN(C(=O)C2CC2)CC1`, for which the viability, T/C runs as follows: (compound 0.0316 µM) 91.6% and 93.9% and 74.9%; (compound 0.1 µM) 78.7% and 90% and 91.5%; (compound 0.316 µM) 103% and 77.3% and 93.6%; (compound 1 µM) 74.1% and 76.7% and 83%; (compound 3.16 µM) 86.2% and 79.5% and 87.6%; (compound 10 µM) 81% and 72.1% and 82.1%. Also, the pIC50 (curve of compound) is less than 5.00.
Regarding `O=c1[nH]cc(F)c(=O)[nH]1`, the viability, T/C (compound 0.0316 µM) was 119% and 102% and 97%; the viability, T/C (compound 0.1 µM) is 107% and 84.6% and 86.3%; the viability, T/C (compound 0.316 µM) is 104% and 89.5% and 75.2%; the viability, T/C (compound 1 µM) was 102% and 96.6% and 104%; the viability, T/C (compound 3.16 µM) was 106% and 98.3% and 96.6%; the viability, T/C (compound 10 µM) was 79.5% and 96.8% and 76.3%. The pIC50 (curve of compound) was less than 5.00.
